The values below come from ChEMBL document CHEMBL1133231, “Syntheses and binding affinities of 6-nitroquipazine analogues for serotonin transporter. Part 1” (Bioorg Med Chem Lett, 2000).

The structures appear in SMILES notation.

The target in the test is Sodium-dependent serotonin transporter (Rattus norvegicus, UniProt P31652). As to the kind of experiment: Inhibition of [3H]citalopram binding to Serotonin transporter of rat cerebral cortex. The test is classed as tissue-based.
Sodium-dependent serotonin transporter, sequence (P31652 whole entry): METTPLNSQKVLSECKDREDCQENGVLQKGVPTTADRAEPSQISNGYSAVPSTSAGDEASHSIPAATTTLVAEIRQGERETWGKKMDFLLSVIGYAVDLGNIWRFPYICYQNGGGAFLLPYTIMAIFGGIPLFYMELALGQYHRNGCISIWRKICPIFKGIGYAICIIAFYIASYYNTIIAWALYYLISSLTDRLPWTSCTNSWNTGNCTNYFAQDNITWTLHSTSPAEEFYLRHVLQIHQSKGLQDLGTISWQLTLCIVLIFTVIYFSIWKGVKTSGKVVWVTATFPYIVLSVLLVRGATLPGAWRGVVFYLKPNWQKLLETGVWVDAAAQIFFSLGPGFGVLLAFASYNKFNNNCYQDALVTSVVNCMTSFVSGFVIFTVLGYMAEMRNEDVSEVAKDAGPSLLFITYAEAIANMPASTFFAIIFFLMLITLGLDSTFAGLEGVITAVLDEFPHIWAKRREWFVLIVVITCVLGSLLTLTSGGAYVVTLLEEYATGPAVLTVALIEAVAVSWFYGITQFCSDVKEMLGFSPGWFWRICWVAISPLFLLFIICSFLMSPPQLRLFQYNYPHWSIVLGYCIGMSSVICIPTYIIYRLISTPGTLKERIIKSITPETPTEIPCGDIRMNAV
Regarding `O=[N+]([O-])c1cc([N+](=O)[O-])c2nc(N3CCNCC3)ccc2c1`, the Ki is 313 nM. That is a sub-micromolar value. `NCCNc1ccc2cc([N+](=O)[O-])ccc2n1` had an inhibitory constant (Ki) of 164 nM.

For `c1ccc2nc(N3CCNCC3)ccc2c1` [QUIPAZINE], affinity was put at a Ki of 63 nM.
